Assays:
[1] = system: PD1-ss+10aa/Gaussia Luciferase; assay: Dox-Induced PD1-ss-Gluc Assay; assay type: cell-based; conditions: 24 hr Dox induction; 293FRT/TO cells; read-out: 24 hr Dox Inducible PD1ssGluc 293FRT/TO: Mean IC50
Summary of the method: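 Doxycycline-induced expression of a PD1-ss+10aa/Gaussia luciferase reporter is measured in stable Flp-In 293 T-REx cells. Compound dilutions containing doxycycline are added one day after plating and incubated at 37 °C, 5% CO2. Values for unassigned stereocentres refer to stereoisomer mixtures.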

[2] = system: TNFα-FL/Gaussia Luciferase; assay: Dox Induced TNFα-FL-Gluc Assay; assay type: cell-based; conditions: for IC50: 24 hr Dox induction, 293FRT/TO cells, read-out: 24 hr Dox Inducible TNFaFLGluc 293FRT/TO: Mean IC50; for 24 hr Dox Inducible TNFaFLGluc 293FRT/TO: TNF/PD1: ratio of TNFaFLGluc IC50 to PD1ssGluc IC50
Description: (§1) Flp-In 293 T-REx™ cells were transfected with pcDNA™5/FRT/TO plasmid inserted with cDNA encoding Gaussia Luciferase fused to the 3′ end of cDNA encoding full length TNFα (amino acids 1-233). Transfected cells were selected for resistance to the selectable markers Hygromycin and Blasticidin to create a stable cell line that contained the TNFα-FL/Gaussia Luciferase cDNA insert whose expression was regulated under the T-REx™ system. The day before assay, cells were trypsinized and plated in 384-well tissue culture plates. The next day, compound dilutions in DMSO/media containing doxycycline were added to the wells and incubated at 37° C., 5% CO2.
(§2) For chemical structures that include one or more stereoisomers, but are illustrated without indicating stereochemistry, the assay data refers to a mixture of stereoisomers.

[3] = system: HER3-ss+4aa/Gaussia Luciferase; assay: Dox-Induced Her3-ss-Gluc Assay; assay type: cell-based; conditions: 24 hr Dox induction; 293FRT/TO cells; read-out: 24 hr Dox Inducible Her3(ss + 4)Gluc 293FRT/TO: Mean IC50
Description: as §1, with “HER3 signal sequence plus 4 amino” for “full length TNFα (amino”, “(N-[…]-C) (SEQ ID NO: 2).” for “1-233).”, “HER3-ss+4aa/Gaussia” for “TNFα-FL/Gaussia”
as §2

[4] = system: IL-2-FL/Gaussia Luciferase; assay: Dox Induced IL2-FL-Gluc Assay; assay type: cell-based; conditions: for IC50: 24 hr Dox induction, 293FRT/TO cells, read-out: 24 hr Dox Inducible IL2FLGluc 293FRT/TO: Mean IC50; for 24 hr Dox Inducible IL2FLGluc 293FRT/TO: IL2/PD1: ratio of IL2FLGluc IC50 to PD1ssGluc IC50
Summary of the method: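 Stable Flp-In 293 T-REx cells carrying doxycycline-inducible full-length IL-2 (aa 1-153) fused to Gaussia luciferase, plated the day before assay. Compound dilutions added in medium containing doxycycline, incubated at 37 °C, 5% CO2. Undefined stereocentres mean data refer to stereoisomer mixtures.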

[5] = system: multiple myeloma cell line NCI-H929; assay: H929 Cell Viability Assay; assay type: cell-based, human; conditions: Homo sapiens, NCI-H929, 48 h, NCI-H929 cells, Celltiter-Glo
Summary of the method: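 NCI-H929 cells in RPMI 1640 with 10% FBS were treated with compound dilutions for 48 h at 37° C, 5% CO2. Viability was read by CellTiter-Glo luminescence. Undefined stereocentres denote stereoisomer mixtures.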

[6] = system: multiple myeloma cell line U266B1; assay: U266 Cell Viability Assay; assay type: cell-based, human; conditions: Homo sapiens, U-266, 48 h, U266B1 cells, Celltiter-Glo
Summary of the method: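 U266B1 multiple myeloma cells in RPMI 1640/10% FBS were treated with compound dilutions for 48 h at 37 °C, 5% CO2. Viability was measured by CellTiter-Glo luminescence; compounds drawn without stereochemistry were tested as stereoisomer mixtures.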

[7] = Liver Microsome Stability Assay (rat); conditions: rat liver microsomes, with NADPH, 1.0 uM compound
Description: (§3) Stability of a compound was assessed in the presence of liver microsomes from various sources—mouse, rat, monkey and human liver microsomes. 1.0 uM compound, 0.4% DMSO in 0.1 M Potassium Phosphate with 1.0 mg/mL liver microsomes, were incubated at 37° C. with or without 1 mM NADPH. The samples were quenched at 0, and 30 minutes.

[8] = Liver Microsome Stability Assay (mouse); conditions: mouse liver microsomes, with NADPH, 1.0 uM compound
Description: as §3

[9] = Liver Microsome Stability Assay (human); conditions: human liver microsomes, with NADPH, 1.0 uM compound
Description: as §3

[10] = Liver Microsome Stability Assay (monkey); conditions: monkey liver microsomes, with NADPH, 1.0 uM compound
Description: as §3

Structure (SMILES) | IC50 [1] [nM] | IC50 [2] [nM] | IC50 [3] [nM] | IC50 [4] [nM] | EC50 [5] [nM] | EC50 [6] [nM] | Liver Microsome Stability (Multiple Species): Rat - % Remaining after 30 min w/NADPH [7] [%] | Liver Microsome Stability (Multiple Species): Mouse - % Remaining after 30 min w/NADPH [8] [%] | Liver Microsome Stability (Multiple Species): Human - % Remaining after 30 min w/NADPH [9] [%] | Liver Microsome Stability (Multiple Species): Monkey - % Remaining after 30 min w/NADPH [10] [%] | 24 hr Dox Inducible TNFaFLGluc 293FRT/TO: TNF/PD1 [2] | 24 hr Dox Inducible IL2FLGluc 293FRT/TO: IL2/PD1 [4]
O=C(Nc1nc([C@H]2CCCN2c2ccc(OC3COC3)cc2)cs1)c1cccn1Cc1ccncc1 [Compound A2, (R)-N-(4-(1-(4-(oxetan-3-yloxy)phenyl)pyrrolidin-2-yl)thiazol-2-yl)-1-(pyridin-4-ylmethyl)-1H-pyrrole-2-carboxamide] | 18.2 | 211 | 31.4 | 34 | 1340 | > 25000 | 7.5 | 6.6 | 0.92 | 0.18 | 11.6 | 1.9
O=C(Nc1nc([C@H]2CCCN2c2ccc(O[C@@H]3CCOC3)cc2)cs1)c1cccn1Cc1ccncc1 [Compound A3, 1-(pyridin-4-ylmethyl)-N-(4-((R)-1-(4-(((R)-tetrahydrofuran-3-yl)oxy)phenyl)pyrrolidin-2-yl)thiazol-2-yl)-1H-pyrrole-2-carboxamide] | 15.6 | 171 | 33.5 | 26 | 530 | > 25000 | 20.1 | 9 | 2.33 | 0.62 | 11 | 1.7
O=C(Nc1nc([C@H]2CCCN2c2ccc(O[C@H]3CCOC3)cc2)cs1)c1cccn1Cc1ccncc1 [Compound A4, 1-(pyridin-4-ylmethyl)-N-(4-((R)-1-(4-(((S)-tetrahydrofuran-3-yl)oxy)phenyl)pyrrolidin-2-yl)thiazol-2-yl)-1H-pyrrole-2-carboxamide] | 16 | 155 | 26.8 | 25.7 | 430 | > 25000 | 15.4 | 9.36 | 4.21 | 0.36 | 9.69 | 1.6
CC(C)Oc1ccc(N2CCC[C@@H]2c2csc(NC(=O)c3cccn3Cc3ccncc3)n2)cc1 [Compound A5, (R)-N-(4-(1-(4-isopropoxyphenyl)pyrrolidin-2-yl)thiazol-2-yl)-1-(pyridin-4-ylmethyl)-1H-pyrrole-2-carboxamide] | 14.7 | 87 | 25.8 | 22.7 | 448 | > 25000 | 26.5 | 13 | 10.4 | 4.26 | 5.92 | 1.5
CC(=O)N1CCC(Oc2ccc(N3CCC[C@@H]3c3csc(NC(=O)c4cccn4Cc4ccncc4)n3)cc2)CC1 [Compound A7, (R)-N-(4-(1-(4-((1-acetylpiperidin-4-yl)oxy)phenyl)pyrrolidin-2-yl)thiazol-2-yl)-1-(pyridin-4-ylmethyl)-1H-pyrrole-2-carboxamide] | 13.8 | 330 | 25.2 | 35.6 | 497 | > 25000 | 5.67 | 39.9 | 4.64 | 3.56 | 23.8 | 2.6
CN1CCC(Oc2ccc(N3CCC[C@@H]3c3csc(NC(=O)c4cccn4Cc4ccncc4)n3)cc2)CC1 [Compound A8, (R)-N-(4-(1-(4-((1-methylpiperidin-4-yl)oxy)phenyl)pyrrolidin-2-yl)thiazol-2-yl)-1-(pyridin-4-ylmethyl)-1H-pyrrole-2-carboxamide] | 293 | 13400 | 588 | 806 | 2000 | 2940 | 11 | 3.14 | 3.14 | 11.3 | 45.5 | 2.7

The next lines start with results.

IC50 [1] [nM] | IC50 [2] [nM] | IC50 [3] [nM] | IC50 [4] [nM] | EC50 [5] [nM] | EC50 [6] [nM] | Liver Microsome Stability (Multiple Species): Rat - % Remaining after 30 min w/NADPH [7] [%] | Liver Microsome Stability (Multiple Species): Mouse - % Remaining after 30 min w/NADPH [8] [%] | Liver Microsome Stability (Multiple Species): Human - % Remaining after 30 min w/NADPH [9] [%] | Liver Microsome Stability (Multiple Species): Monkey - % Remaining after 30 min w/NADPH [10] [%] | Structure (SMILES) | 24 hr Dox Inducible TNFaFLGluc 293FRT/TO: TNF/PD1 [2] | 24 hr Dox Inducible IL2FLGluc 293FRT/TO: IL2/PD1 [4]
34.2 | 875 | 72.5 | 97.1 | 767 | 7350 | 17.7 | 10.5 | 5.24 | 1.86 | CNc1ccc(N2CCC[C@@H]2c2csc(NC(=O)c3cccn3Cc3ccncc3)n2)cc1 [Compound A15] | 25.6 | 2.8
5.06 | 127 | 8.37 | 10.6 | 119 | 2140 | 0.15 | 0.26 | 0.34 | 0.17 | CN(C)c1ccc(N2CCC[C@@H]2c2csc(NC(=O)c3cccn3Cc3ccncc3)n2)cc1 [Compound A16, (R)-N-(4-(1-(4-(dimethylamino)phenyl)pyrrolidin-2-yl)thiazol-2-yl)-1-(pyridin-4-ylmethyl)-1H-pyrrole-2-carboxamide] | 25 | 2.1
6.69 | 178 | 11.5 | 16.7 | 161 | > 25000 | 0.38 | 2.94 | 0.32 | 0.22 | CNC(=O)c1ccc(N2CCC[C@@H]2c2csc(NC(=O)c3cccn3Cc3ccncc3)n2)cc1 [Compound A17, (R)-N-(4-(1-(4-(methylcarbamoyl)phenyl)pyrrolidin-2-yl)thiazol-2-yl)-1-(pyridin-4-ylmethyl)-1H-pyrrole-2-carboxamide] | 26.6 | 2.5
